IC50 and EC50 data for four molecules are collected here from publication doi:10.1101/2021.11.05.467508v1, “Biochemical analysis of deacetylase activity of rice sirtuin OsSRT1, a class IV member in plants” (biorxiv, 2021).

Experiment [1] deals with T1, OsSRT1 (FL) (Oryza sativa, UniProt B8ARK7).
T1 construct: gene SRT1; full length 1-483, cloned from rice leaf cDNA into pET30a, His-tagged, monomer by SEC
T1 sequence (B8ARK7 1-483): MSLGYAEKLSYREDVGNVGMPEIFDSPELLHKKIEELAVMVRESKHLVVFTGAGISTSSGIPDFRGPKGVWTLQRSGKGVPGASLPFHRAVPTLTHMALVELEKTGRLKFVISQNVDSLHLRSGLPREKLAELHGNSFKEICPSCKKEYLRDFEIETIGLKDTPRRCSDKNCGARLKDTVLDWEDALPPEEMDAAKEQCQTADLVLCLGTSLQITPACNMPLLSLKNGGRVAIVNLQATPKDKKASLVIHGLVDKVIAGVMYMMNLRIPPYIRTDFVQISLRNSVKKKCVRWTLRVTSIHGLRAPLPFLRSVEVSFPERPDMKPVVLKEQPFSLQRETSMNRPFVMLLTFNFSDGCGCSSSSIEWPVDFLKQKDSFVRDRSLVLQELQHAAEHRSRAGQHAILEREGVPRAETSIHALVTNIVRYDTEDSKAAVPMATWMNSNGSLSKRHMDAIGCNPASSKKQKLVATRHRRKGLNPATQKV
Description: dot blot deacetylation assay, H3K9Ac. In kind it is biochemical.

In experiment [2] the target is T1, OsSRT1 (FL). The experiment can be described thus: dot blot deacetylation assay, H3K9Ac. The format is biochemical. The source holds these as a separate data set.

Like-named read-outs stand apart in the source and are kept apart here.

A word on the IC50: it is the concentration needed to halve the response being measured. A lower IC50 goes with inhibition by little substance. By EC50 is commonly meant the concentration needed to bring the measured effect to its halfway point. The low end stands for a more potent agent, the high end for a less potent agent.

On OsSRT1 (FL) [1] (H3K9Ac deacetylation, product inhibition), `Nc1ncnc2c1ncn2[C@@H]1O[C@H](COP(=O)(O)OP(=O)(O)OC[C@H]2OC(O)[C@H](O)[C@@H]2O)[C@@H](O)[C@H]1O` (stereo partly shown) [ADP-ribose] gave an IC50 of 25 ± 2 µM.

On OsSRT1 (FL) [1], `NC(=O)c1cccnc1` [NAM] registered an IC50 of 147 ± 21 µM.

`Oc1ccc(/C=C/c2cc(O)cc(O)c2)cc1` [resveratrol] gave an EC50 at OsSRT1 (FL) [2] of 236 ± 12 µM.

As to `CCCC(=O)O` [sodium butyrate], at OsSRT1 (FL) [1], half-maximal inhibition (IC50) required 98 ± 15 µM.
